# Assay results published in patent publication US20220089575A1, “FARNESOID X RECEPTOR AGONISTS AND USES THEREOF” (Metacrine, Inc., priority 2017, published 2022).
# Biological target: T1, hFXR (Homo sapiens, UniProt Q96RI1)
# T1 construct: expressed in transfected cells; host or cells: CV-1 cells
# T1 sequence (Q96RI1 1-486): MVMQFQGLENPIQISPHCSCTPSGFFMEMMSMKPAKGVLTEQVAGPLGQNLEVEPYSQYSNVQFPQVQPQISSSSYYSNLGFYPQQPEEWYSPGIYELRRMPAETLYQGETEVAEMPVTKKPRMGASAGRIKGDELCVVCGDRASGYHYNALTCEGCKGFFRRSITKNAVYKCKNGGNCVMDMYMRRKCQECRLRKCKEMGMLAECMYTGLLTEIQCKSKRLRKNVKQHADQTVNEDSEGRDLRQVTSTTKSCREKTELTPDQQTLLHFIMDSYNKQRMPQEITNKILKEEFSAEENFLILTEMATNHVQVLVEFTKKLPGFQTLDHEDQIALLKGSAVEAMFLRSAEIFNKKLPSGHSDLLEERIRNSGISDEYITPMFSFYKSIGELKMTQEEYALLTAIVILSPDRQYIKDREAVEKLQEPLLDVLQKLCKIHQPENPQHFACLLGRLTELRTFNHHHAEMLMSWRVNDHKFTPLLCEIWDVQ
# T1 sequence (P19793 1-462 partner): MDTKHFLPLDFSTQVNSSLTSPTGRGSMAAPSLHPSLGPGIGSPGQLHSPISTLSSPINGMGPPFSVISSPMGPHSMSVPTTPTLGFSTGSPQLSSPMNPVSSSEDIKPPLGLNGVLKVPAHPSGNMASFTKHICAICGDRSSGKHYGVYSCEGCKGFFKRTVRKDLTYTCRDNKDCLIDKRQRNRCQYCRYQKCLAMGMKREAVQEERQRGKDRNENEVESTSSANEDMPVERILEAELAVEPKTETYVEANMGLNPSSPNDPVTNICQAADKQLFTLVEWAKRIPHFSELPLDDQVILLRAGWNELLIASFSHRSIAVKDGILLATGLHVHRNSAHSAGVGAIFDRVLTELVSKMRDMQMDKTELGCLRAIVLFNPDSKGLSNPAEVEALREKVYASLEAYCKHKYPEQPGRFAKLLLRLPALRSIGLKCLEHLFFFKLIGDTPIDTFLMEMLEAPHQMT
# Assay: In Vitro FXR Assay (TK): TK-ECRE-luc reporter in transfected CV-1 cells
# Type: cell-based
# Settings: 18 hrs, luminescence, maximum efficacy of <25% of the Fexarmine control classified as '+'
# Procedure, shortened: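 Luciferase luminescence read-out from lysed CV-1 cells transiently co-expressing hFXR and hRXR with a TK-ECRE-luc reporter (pCMX-YFP co-transfected). Compound exposure lasted 18 h at 37 °C, 5% CO2, in medium containing charcoal super-stripped serum.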
row,Structure (SMILES),EC50 [nM]
1,"CNC(=O)O[C@H]1CC[C@H](C(=O)N(C[C@H]2CC[C@H](c3ccc(OC)c(C)c3)CC2)c2cccc(-c3cnn(C(C)C)c3)c2)CC1 [Compound 5.10, trans-4-((3-(1-Isopropyl-1H-pyrazol-4-yl)phenyl)((trans-4-(4-methoxy-3-methylphenyl)cyclohexyl)methyl)carbamoyl)cyclohexyl methylcarbamate]",≤ 250
2,"CNC(=O)O[C@H]1CC[C@H](C(=O)N(C[C@H]2CC[C@H](c3cnc(OC)c(Cl)c3)CC2)c2cccc(-c3cnn(C4CC4)c3)c2)CC1 [Compound 5.11, trans-4-(((trans-4-(5-Chloro-6-methoxypyridin-3-yl)cyclohexyl)methyl)(3-(1-cyclopropyl-1H-pyrazol-4-yl)phenyl)carbamoyl)cyclohexyl methylcarbamate]",≤ 250
3,"CNC(=O)O[C@H]1CC[C@H](C(=O)N(C[C@H]2CC[C@H](c3ccc(OC)c(C)c3)CC2)c2cc(-c3cnn(C(C)C)c3)ccn2)CC1 [Compound 5.12, trans-4-((4-(1-Isopropyl-1H-pyrazol-4-yl)pyridin-2-yl)((trans-4-(4-methoxy-3-methylphenyl)cyclohexyl)methyl)carbamoyl)cyclohexyl methylcarbamate]",≤ 250
4,"CNC(=O)O[C@H]1CC[C@H](C(=O)N(C[C@H]2CC[C@H](c3ccc(OC)c(C)n3)CC2)c2cc(-c3cnn(C4CC4)c3)ccn2)CC1 [Compound 5.13, trans-4-((4-(1-Cyclopropyl-1H-pyrazol-4-yl)pyridin-2-yl)((trans-4-(5-methoxy-6-methylpyridin-2-yl)cyclohexyl)methyl)carbamoyl)cyclohexyl methylcarbamate]",≤ 250
5,"CNC(=O)O[C@H]1CC[C@H](C(=O)N(C[C@H]2CC[C@H](c3ccc(OC)c(C#N)c3)CC2)c2cccc(-c3cnn(C4CC4)c3)c2)CC1 [Compound 5.14, trans-4-(((trans-4-(3-Cyano-4-methoxyphenyl)cyclohexyl)methyl)(3-(1-cyclopropyl-1H-pyrazol-4-yl)phenyl)carbamoyl)cyclohexyl methylcarbamate]",≤ 250
6,"CNC(=O)O[C@H]1CC[C@H](C(=O)N(C[C@H]2CC[C@H](c3ccc(OC)c(C#N)c3)CC2)c2cccc(-c3cnn(C(C)C)c3)c2)CC1 [Compound 5.15, trans-4-(((trans-4-(3-Cyano-4-methoxyphenyl)cyclohexyl)methyl)(3-(1-Isopropyl-1H-pyrazol-4-yl)phenyl)carbamoyl)cyclohexyl methylcarbamate]",≤ 250
7,"CNC(=O)O[C@H]1CC[C@H](C(=O)N(C[C@H]2CC[C@H](c3cnc(OC)c(C)c3)CC2)c2cccc(-c3cnn(C4CC4)c3)c2)CC1 [Compound 5.16, trans-4-((3-(1-Cyclopropyl-1H-pyrazol-4-yl)phenyl)((trans-4-(6-methoxy-5-methylpyridin-3-yl)cyclohexyl)methyl)carbamoyl)cyclohexyl methylcarbamate]",≤ 250
8,"CNC(=O)O[C@H]1CC[C@H](C(=O)N(C[C@H]2CC[C@H](c3ccc(OC)c(C#N)c3)CC2)c2cc(-c3cnn(C4CC4)c3)ccn2)CC1 [Compound 5.17, trans-4-(((trans-4-(3-Cyano-4-methoxyphenyl)cyclohexyl)methyl)(4-(1-cyclopropyl-1H-pyrazol-4-yl)pyridin-2-yl)carbamoyl)cyclohexyl methylcarbamate]",≤ 250
9,"CNC(=O)O[C@H]1CC[C@H](C(=O)N(C[C@H]2CC[C@H](c3ccc(OC)c(C#N)c3)CC2)c2cc(-c3cnn(C(C)C)c3)ccn2)CC1 [Compound 5.18, trans-4-(((trans-4-(3-Cyano-4-methoxyphenyl)cyclohexyl)methyl)(4-(1-isopropyl-1H-pyrazol-4-yl)pyridin-2-yl)carbamoyl)cyclohexyl methylcarbamate]",≤ 250
10,"CNC(=O)O[C@H]1CC[C@@H](C(=O)N(CC2CCC(c3ccc(OC)c(C#N)c3)CC2)c2cc(-c3cnn(C(C)C)c3)ccn2)CC1 (stereo partly drawn) [Compound 5.19, cis-4-(((4-(3-Cyano-4-methoxyphenyl)cyclohexyl)methyl)(4-(1-isopropyl-1H-pyrazol-4-yl)pyridin-2-yl)carbamoyl)cyclohexyl methylcarbamate]",≤ 250
11,"CNC(=O)O[C@H]1CC[C@H](C(=O)N(C[C@H]2CC[C@H](c3ccc(OC)c(C)n3)CC2)c2cccc(-c3cnn(C(C)(C)C)c3)c2)CC1 [Compound 5.20, trans-4-((3-(1-(tert-Butyl)-1H-pyrazol-4-yl)phenyl)((trans-4-(5-methoxy-6-methylpyridin-2-yl)cyclohexyl)methyl)carbamoyl)cyclohexyl methylcarbamate]",≤ 250
12,"CNC(=O)O[C@H]1CC[C@H](C(=O)N(C[C@H]2CC[C@H](c3ccc(OC)c(C)n3)CC2)c2cccc(-c3cnn(C4CCC4)c3)c2)CC1 [Compound 5.21, trans-4-((3-(1-Cyclobutyl-1H-pyrazol-4-yl)phenyl)((trans-4-(5-methoxy-6-methylpyridin-2-yl)cyclohexyl)methyl)carbamoyl)cyclohexyl methylcarbamate]",≤ 250
13,"COc1ccc([C@H]2CC[C@H](CN(c3cccc(-c4cnn(C5CC5)c4)c3)C(=O)[C@H]3CC[C@H](OC(=O)N(C)C)CC3)CC2)cc1C [Compound 5.22, trans-4-((3-(1-Cyclopropyl-1H-pyrazol-4-yl)phenyl)((trans-4-(4-methoxy-3-methylphenyl)cyclohexyl)methyl)carbamoyl)cyclohexyl dimethylcarbamate]",≤ 250
14,"CNC(=O)O[C@H]1CC[C@H](C(=O)N(C[C@H]2CC[C@H](c3ccc(OC)c(C#N)n3)CC2)c2cccc(-c3cnn(C4CC4)c3)c2)CC1 [Compound 5.23, trans-4-(((trans-4-(6-Cyano-5-methoxypyridin-2-yl)cyclohexyl)methyl)(3-(1-cyclopropyl-1H-pyrazol-4-yl)phenyl)carbamoyl)cyclohexyl methylcarbamate]",≤ 250
15,"CNC(=O)O[C@H]1CC[C@H](C(=O)N(C[C@H]2CC[C@H](c3ccc(OC)c(C)n3)CC2)c2cc(-c3cnn(C(C)C)c3)ccn2)CC1 [Compound 5.24, trans-4-((4-(1-Isopropyl-1H-pyrazol-4-yl)pyridin-2-yl)((trans-4-(5-methoxy-6-methylpyridin-2-yl)cyclohexyl)methyl)carbamoyl)cyclohexyl methylcarbamate]",≤ 250
16,"CCNC(=O)O[C@H]1CC[C@H](C(=O)N(C[C@H]2CC[C@H](c3ccc(OC)c(C)n3)CC2)c2cc(-c3cnn(C(C)C)c3)ccn2)CC1 [Compound 5.25, trans-4-((4-(1-Isopropyl-1H-pyrazol-4-yl)pyridin-2-yl)((trans-4-(5-methoxy-6-methylpyridin-2-yl)cyclohexyl)methyl)carbamoyl)cyclohexyl ethylcarbamate]",≤ 250
17,"CNC(=O)O[C@H]1CC[C@H](C(=O)N(C[C@H]2CC[C@H](c3ccc(OC)c(C#N)n3)CC2)c2cc(-c3cnn(C(C)C)c3)ccn2)CC1 [Compound 5.26, trans-4-(((trans-4-(6-Cyano-5-methoxypyridin-2-yl)cyclohexyl)methyl)(4-(1-isopropyl-1H-pyrazol-4-yl)pyridin-2-yl)carbamoyl)cyclohexyl methylcarbamate]",≤ 250
18,"CNC(=O)O[C@H]1CC[C@H](C(=O)N(C[C@H]2CC[C@H](c3ccc(OC)c(C#N)n3)CC2)c2cc(-c3cnn(C4CC4)c3)ccn2)CC1 [Compound 5.27, trans-4-(((trans-4-(6-Cyano-5-methoxypyridin-2-yl)cyclohexyl)methyl)(4-(1-cyclopropyl-1H-pyrazol-4-yl)pyridin-2-yl)carbamoyl)cyclohexyl methylcarbamate]",≤ 250
